Measured values: patent publication US20250034127A1, “AUTOPHAGY INDUCING COMPOUNDS AND USES THEREOF, IN PARTICULAR FOR DISEASES OF THE CNS” (Samsara Therapeutics Inc., priority 2021, published 2025)

system: Human osteosarcoma U2OS cells; test: Assay to measure lysosome and autolysosome (acidic vesicle) formation in U2OS cells; format: cell-based; conditions: Homo sapiens, concentration of 0.8 μM, read-out: Activity (percentage increase in acidic vesicle formation over the DMSO-treated control)
Description: Lysosomes play a fundamental role in the autophagic pathway by fusing with autophagosomes and creating ‘autolysosomes’ in order to digest their contents. Stimulation of lysosome and autolysosome formation by a compound is indicative of a stimulation of autophagy. The ability of compounds to stimulate lysosome and autolysosome formation, and thus autophagy, in live cells was assessed via fluorescent microscopy using various fluorescent stains for labelling and tracking acidic organelles (including lysosomes and autolysosomes) such as: LysoView™ 650 (70059 and 70059-T, Biotium), Lyso View™633 (70058 and 70058-T, Biotium) and LysoTracker™ Deep Red (L12492, ThermoFisher Scientific). The cellular phenotype was quantitatively assessed for the induction of acidic vesicle formation and compared to a non-treated control, thus providing a measure of the ability of the compound under investigation to stimulate autophagy.
Representative procedure using LysoView™ 633 dye or LysoTracker™ Deep Red dye: Human osteosarcoma U2OS cells (40,000 cells/well) were seeded in a 24 well glass bottom plate (Sensoplate, Greiner Bio-One) and were incubated overnight in a humidified atmosphere at 37° C. and 5% CO2. Cells were grown in DMEM (Gibco) supplemented with 10% Fetal Bovine Serum (FBS) and 100 units/ml penicillin and 100 μg/ml streptomycin (Invitrogen). After the attachment period, cells were treated with different compounds of interest (at various concentrations in DMSO) or DMSO (non-treated control) in cell culture medium and were incubated for 24 hours. Compound-containing medium was removed and cells were incubated with pre-warmed cell culture medium containing 1× Lyso View™ 633 (70058 and 70058-T, Biotium) or 50 nM LysoTracker™ Deep Red (L12492, ThermoFisher Scientific) for 45 minutes at 37° C. Finally, cell nuclei were stained for 10 minutes using Hoechst 33342 (1 μg/mL) and then the medium was replaced with fresh medium. The 24 well plate was then fitted into a heated stage on the microscope and cells maintained at 37° C. Images were captured using appropriate filter set for Cy5 and DAPI detection with the EVOS M7000 Microscope (ThermoFisher Scientific). The cellular phenotype was visually assessed for the induction of acidic vesicle formation relative to the non-treated control; multiple images were acquired and analysed using ImageJ or Cell Profiler.

Row | SMILES | activation at 0.8 µM
1 | CN(CCN(C)C1CCCCC1)C(=O)c1csc(-c2cnn(-c3ccccc3)c2)n1 [Compound 190, N-{2-[cyclohexyl(methyl)amino]ethyl}-N-methyl-2-(1-phenyl-1H-pyrazol-4-yl)-1,3-thiazole-4-carboxamide] | 10 to 30%
2 | CC(=O)N1CCN(C(=O)c2csc(-c3cnn(-c4ccccc4)c3)n2)CC1 [Compound 198, 1-{4-[2-(1-phenyl-1H-pyrazol-4-yl)-1,3-thiazole-4-carbonyl]piperazin-1-yl}ethan-1-one] | 10 to 30%
3 | O=C(NCCN1CCCCC1)c1csc(-c2cnn(-c3ccccc3)c2)n1 [Compound 202, 2-(1-phenyl-1H-pyrazol-4-yl)-N-[2-(piperidin-1-yl)ethyl]-1,3-thiazole-4-carboxamide] | 30 to 50%
4 | O=C(NCCN1CCOCC1)c1csc(-c2cnn(-c3ccccc3)c2)n1 [Compound 204, N-[2-(morpholin-4-yl)ethyl]-2-(1-phenyl-1H-pyrazol-4-yl)-1,3-thiazole-4-carboxamide] | 10 to 30%
5 | CN1CCC[C@H](NC(=O)c2csc(-c3cnn(-c4ccccc4)c3)n2)C1 [Compound 208, N-[(3S)-1-methylpiperidin-3-yl]-2-(1-phenyl-1H-pyrazol-4-yl)-1,3-thiazole-4-carboxamide] | 10 to 30%
6 | CCN1CCC(NC(=O)c2csc(-c3cnn(-c4ccc(F)cc4)c3)n2)CC1 [Compound 213, N-(1-ethylpiperidin-4-yl)-2-[1-(4-fluorophenyl)-1H-pyrazol-4-yl]-1,3-thiazole-4-carboxamide] | 10 to 30%
7 | CCN1CCC(NC(=O)c2ccc(-c3cnn(-c4ccccc4)c3)[nH]2)CC1 [Compound 214, N-(1-ethylpiperidin-4-yl)-5-(1-phenyl-1H-pyrazol-4-yl)-1H-pyrrole-2-carboxamide] | 10 to 30%
8 | NS(=O)(=O)N1CCN(C(=O)c2ccc(-c3cnn(-c4ccccc4C(F)(F)F)c3)[nH]2)CC1 [Compound 216, 4-(5-{1-[2-(trifluoromethyl)phenyl]-1H-pyrazol-4-yl}-1H-pyrrole-2-carbonyl)piperazine-1-sulfonamide] | 10 to 30%
9 | CCN1CCC(N(C)C(=O)c2csc(-c3cnn(-c4ccccc4C(F)(F)F)c3)n2)CC1 [Compound 217, N-(1-ethylpiperidin-4-yl)-N-methyl-2-{1-[2-(trifluoromethyl)phenyl]-1H-pyrazol-4-yl}-1,3-thiazole-4-carboxamide] | 10 to 30%
10 | CCN1CCC(N(CC)C(=O)c2csc(-c3cnn(-c4ccccc4)c3)n2)CC1 [Compound 219, N-ethyl-N-(1-ethylpiperidin-4-yl)-2-(1-phenyl-1H-pyrazol-4-yl)-1,3-thiazole-4-carboxamide] | > 100%
11 | CCN1CCC(N(C)C(=O)c2csc(-c3cnn(-c4ccccn4)c3)n2)CC1 [Compound 221, N-(1-ethylpiperidin-4-yl)-N-methyl-2-[1-(pyridin-2-yl)-1H-pyrazol-4-yl]-1,3-thiazole-4-carboxamide] | 10 to 30%
12 | C[C@H]1CN(C(=O)c2csc(-c3cnn(-c4cccnc4)c3)n2)CCN1 [Compound 223, (3S)-3-methyl-1-{2-[1-(pyridin-3-yl)-1H-pyrazol-4-yl]-1,3-thiazole-4-carbonyl}piperazine] | 10 to 30%
13 | CCN1CCC(N(C)C(=O)c2csc(-c3cnn(-c4cccnc4)c3)n2)CC1 [Compound 224, N-(1-ethylpiperidin-4-yl)-N-methyl-2-[1-(pyridin-3-yl)-1H-pyrazol-4-yl]-1,3-thiazole-4-carboxamide] | 50 to 100%
14 | CCN1CCC(NC(=O)c2csc(-c3cnn(-c4cccnc4)c3)n2)CC1 [Compound 225, N-(1-ethylpiperidin-4-yl)-2-[1-(pyridin-3-yl)-1H-pyrazol-4-yl]-1,3-thiazole-4-carboxamide] | 10 to 30%
15 | CCN1CCC(NC(=O)c2csc(-c3cnn(-c4ccncc4)c3)n2)CC1 [Compound 228, N-(1-ethylpiperidin-4-yl)-2-[1-(pyridin-4-yl)-1H-pyrazol-4-yl]-1,3-thiazole-4-carboxamide] | 10 to 30%
16 | C[C@H]1CN(C(=O)c2csc(-c3cnn(-c4cccnn4)c3)n2)CCN1 [Compound 229, 3-(4-{4-[(3S)-3-methylpiperazine-1-carbonyl]-1,3-thiazol-2-yl}-1H-pyrazol-1-yl)pyridazine] | 30 to 50%
17 | CCN1CCC(NC(=O)c2csc(-c3cnn(-c4cccnn4)c3)n2)CC1 [Compound 231, N-(1-ethylpiperidin-4-yl)-2-[1-(pyridazin-3-yl)-1H-pyrazol-4-yl]-1,3-thiazole-4-carboxamide] | 10 to 30%
18 | C[C@H]1CN(C(=O)c2csc(-c3cnn(-c4cnccn4)c3)n2)CCN1 [Compound 232, 2-(4-{4-[(3S)-3-methylpiperazine-1-carbonyl]-1,3-thiazol-2-yl}-1H-pyrazol-1-yl)pyrazine] | 50 to 100%
19 | CCN1CCC(N(C)C(=O)c2csc(-c3cnn(-c4cnccn4)c3)n2)CC1 [Compound 233, N-(1-ethylpiperidin-4-yl)-N-methyl-2-[1-(pyrazin-2-yl)-1H-pyrazol-4-yl]-1,3-thiazole-4-carboxamide] | 50 to 100%
20 | CCN1CCC(NC(=O)c2csc(-c3cnn(-c4cnccn4)c3)n2)CC1 [Compound 234, N-(1-ethylpiperidin-4-yl)-2-[1-(pyrazin-2-yl)-1H-pyrazol-4-yl]-1,3-thiazole-4-carboxamide] | 30 to 50%
21 | CC1(C)CN(C(=O)c2csc(-c3cnn(-c4ccccc4)c3)n2)CCN1 [Compound 235, 3,3-dimethyl-1-[2-(1-phenyl-1H-pyrazol-4-yl)-1,3-thiazole-4-carbonyl]piperazine] | 30 to 50%
22 | CCN1CCN(C(=O)c2csc(-c3cnn(-c4ccccc4)c3)n2)CC1 [Compound 236, 1-ethyl-4-[2-(1-phenyl-1H-pyrazol-4-yl)-1,3-thiazole-4-carbonyl]piperazine] | 10 to 30%
23 | CN(C(=O)c1csc(-c2cnn(-c3ccccc3)c2)n1)C1CCN(C(C)(C)C)CC1 [Compound 239, N-(1-tert-butylpiperidin-4-yl)-N-methyl-2-(1-phenyl-1H-pyrazol-4-yl)-1,3-thiazole-4-carboxamide] | 10 to 30%

same assay, conditions: concentration of 10 μM, 24 hours

Row | SMILES | acidic vesicle formation relative to a DMSO-treated control
24 | C[C@H]1CN(C(=O)c2csc(-c3cnn(-c4cccnc4)c3)n2)CCN1 [Compound 223, (3S)-3-methyl-1-{2-[1-(pyridin-3-yl)-1H-pyrazol-4-yl]-1,3-thiazole-4-carbonyl}piperazine] | only a slight increase
25 | C[C@H]1CN(C(=O)c2csc(-c3cnn(-c4ccncc4)c3)n2)CCN1 [Compound 226, (3S)-3-methyl-1-{2-[1-(pyridin-4-yl)-1H-pyrazol-4-yl]-1,3-thiazole-4-carbonyl}piperazine] | only a slight increase
26 | CCN1CCC(N(C)C(=O)c2csc(-c3cnn(-c4ccncc4)c3)n2)CC1 [Compound 227, N-(1-ethylpiperidin-4-yl)-N-methyl-2-[1-(pyridin-4-yl)-1H-pyrazol-4-yl]-1,3-thiazole-4-carboxamide] | only a slight increase
27 | C[C@H]1CN(C(=O)c2csc(-c3cnn(-c4cnccn4)c3)n2)CCN1 [Compound 232, 2-(4-{4-[(3S)-3-methylpiperazine-1-carbonyl]-1,3-thiazol-2-yl}-1H-pyrazol-1-yl)pyrazine] | only a slight increase
28 | C[C@H]1CC(N(C)C(=O)c2csc(-c3cnn(-c4ccccc4)c3)n2)CCN1 (stereo partly drawn) [Compound 241, N-methyl-N-[(2S)-2-methylpiperidin-4-yl]-2-(1-phenyl-1H-pyrazol-4-yl)-1,3-thiazole-4-carboxamide] | only a slight increase
